Test results taken from patent US20230159510A1, “NOVEL PRMT5 INHIBITORS” (AMGEN INC., priority 2020, published 2023).

Key:
HCT116 WT cells = assay: HCT116 proliferation assay, WT cells (CellTiter-Glo, 6 days); type: cell-based; details: Homo sapiens, HCT-116, 144 h, read-out: Prolif_HCT116-WT IC50
Description: (§1) HCT116 MTAP null and WT cells were seeded in 96-well tissue culture plates in RPMI 1640 media + 10% fetal bovine serum. Plates were incubated overnight at 37° C. and 5% CO2. Cells were then treated with a 8- or 9-point serial dilution of compound, using a top concentration of 1 or 10 µM, 1:3 serial dilution steps and, a DMSO-only control. Cells were incubated in the presence of drug for 6 days. Effects on cell viability were measured with the CellTiter-Glo® Luminescent Cell Viability Assay (Promega) per manufacturer’s recommendation. Assay plates were read on an EnVision™ Multilabel Reader using the Ultra-Sensitive luminescence module.

HCT116 MTAP null cells = assay: HCT116 proliferation assay, MTAP null cells (CellTiter-Glo, 6 days); type: cell-based; details: HCT116-MTAP null, 144 h, read-out: Protif_ HCT116-MTAP null IC50
Description: as §1

SMILES | IC50 (HCT116 WT cells) [nM] | IC50 (HCT116 MTAP null cells) [nM]
Cc1cc2cc(C(=O)N(Cc3ccc4[nH]c(=O)[nH]c4c3)Cc3ccncc3F)ccc2nc1N [Example 588, 2-amino-N-((3-fluoropyridin-4-yl)methyl)-3-methyl-N-((2-oxo-2,3-dihydro-1H-benzo [d]imidazol-5-yl)methyl)quinoline-6-carboxamide] | > 1000 | 760
Cc1cc2cc(C(=O)N(Cc3ccc(C(F)(F)F)cn3)CC(O)C(F)(F)F)ccc2nc1N (centres unmarked) [Example 592, 2-amino-3-methyl-N-(3,3,3-trifluoro-2-hydroxypropyl)-N-((5-(trifluoromethyl)pyridin-2-yl)methyl)quinoline-6-carboxamide] | > 1000 | 407
Cc1cc2cc(C(=O)N(Cc3ccc(C(F)(F)F)cn3)C(C)C3CCOCC3)ccc2nc1N (centres unmarked) [Example 675, 2-amino-3-methyl-N-(1-tetrahydropyran-4-ylethyl)-N-[[5-(trifluoromethyl)-2-pyridyl]methyl] quinoline-6-carboxamide] | > 1000 | 232
CCOc1ccc(CN(C(=O)c2ccc3nc(N)c(Br)cc3c2)[C@H](C)c2ncccn2)nn1 [Example 729, 2-amino-3-bromo-N-((6-ethoxy-3-pyridazinyl)methyl)-N-((1R)-1-(2-pyrimidinyl)ethyl)-6-quinolinecarboxamide] | 6900 | 114
COC[C@H](C1CC1)N(Cc1ccc(N2CCOCC2)nn1)C(=O)c1ccc2nc(N)c(Br)cc2c1 [Example 732, 2-amino-3-bromo-N-((1S)-1-cyclopropyl-2-methoxyethyl)-N-((6-(4-morpholinyl)-3-pyridazinyl)methyl)-6-quinolinecarboxamide] | > 10000 | 231
COC[C@@H](C)N(Cc1ccc(C#N)cn1)C(=O)c1ccc2nc(N)c(Br)cc2c1 [Example 733, 2-amino-3-bromo-N-((5-cyano-2-pyridinyl)methyl)-N-((2R)-1-methoxy-2-propanyl)-6-quinolinecarboxamide] | > 10000 | 434
Cc1cc2cc(C(=O)N(CCOC(F)(F)F)Cc3ccc(C(F)(F)F)cn3)ccc2nc1N [Example 734, 2-amino-3-methyl-N-(2-(trifluoromethoxy)ethyl)-N-((5-(trifluoromethyl)-2-pyridinyl)methyl)-6-quinolinecarboxamide] | > 10000 | 994
C[C@H](c1ncccc1F)N(Cc1ccc(C(F)(F)F)nn1)C(=O)c1ccc2nc(N)c(Br)cc2c1 [Example 737, 2-amino-3-bromo-N-((1R)-1-(3-fluoro-2-pyridinyl)ethyl)-N-((6-(trifluoromethyl)-3-pyridazinyl)methyl)-6-quinolinecarboxamide] | 6800 | 148
N#Cc1ccc(CN(C(=O)c2ccc3nc(N)c(Br)cc3c2)[C@@H](c2ncccn2)C2CC2)nc1 [Example 738, 2-amino-3-bromo-N-((5-cyano-2-pyridinyl)methyl)-N-((R)-cyclopropyl(2-pyrimidinyl)methyl)-6-quinolinecarboxamide] | 4300 | 173
C[C@H](c1ncccc1F)N(Cc1ccc(Br)nn1)C(=O)c1ccc2nc(N)c(Cl)cc2c1 [Example 739, 2-amino-N-((6-bromo-3-pyridazinyl)methyl)-3-chloro-N-((1R)-1-(3-fluoro-2-pyridinyl)ethyl)-6-quinolinecarboxamide] | > 10000 | 355
C[C@H](c1ncccn1)N(Cc1ccc(Br)nn1)C(=O)c1ccc2nc(N)c(Br)cc2c1 [Example 740, (R)-2-amino-3-bromo-N-((6-bromopyridazin-3-yl)methyl)-N-(1-(pyrimidin-2-yl)ethyl)quinoline-6-carboxamide] | 4400 | 80
Cc1cc2cc(C(=O)N(Cc3ccc(OC(F)F)nn3)C(C)c3ncccn3)ccc2nc1N (centres unmarked) [Example 742, 2-amino-N-((6-(difluoromethoxy)pyridazin-3-yl)methyl)-3-methyl-N-(1-(pyrimidin-2-yl)ethyl)quinoline-6-carboxamide] | 1170 | 40
Cc1c(Br)c(N)nc2ncc(C(=O)N(Cc3ccc(C(F)(F)F)cn3)[C@H](C)c3ncccn3)cc12 [Example 743, (R)-7-amino-6-bromo-5-methyl-N-(1-(pyrimidin-2-yl)ethyl)-N-((5-(trifluoromethyl)pyridin-2-yl)methyl)-1,8-naphthyridine-3-carboxamide] | 694 | 54
Cc1c(Br)c(N)nc2ncc(C(=O)N(Cc3ccc(C#N)cn3)[C@H](C)c3ncccn3)cc12 [Example 744, (R)-7-amino-6-bromo-N-((5-cyanopyridin-2-yl)methyl)-5-methyl-N-(1-(pyrimidin-2-y 1)ethy 1)-1 ,8-naphthyridine-3-carboxamide] | 4120 | 188
C[C@H](c1ncccn1)N(Cc1cc(Cl)c(C#N)cn1)C(=O)c1ccc2nc(N)c(Br)cc2c1 [Example 745, (R)-2-amino-3-bromo-N-((4-chloro-5-cyanopyridin-2-yl)methyl)-N-(1-(pyrimidin-2-yl)ethyl)quinoline-6-carboxamide] | 1240 | 223

Second part, the molecule after the results:

IC50 (HCT116 WT cells) [nM] | IC50 (HCT116 MTAP null cells) [nM] | SMILES
> 1000 | 549 | Cc1cc2cc(C(=O)N(Cc3ccc4[nH]c(=O)[nH]c4c3)Cc3ccnc4[nH]ccc34)ccc2nc1N [Example 589, N-((1H-pyrrolo[2,3-b]pyridin-4-yl)methyl)-2-amino-3-methyl-N-((2-oxo-2,3-dihydro-1H-benzo [d]imidazol-5-yl)methyl)quinoline-6-carboxamide]
9780 | 279 | Cc1cc2cc(C(=O)N(Cc3ccccc3F)Cc3c[nH]c4cccnc34)ccc2nc1N [Example 711, 2-amino-N-[(2-fluorophenyl)methy1] -3-methyl-N-(1H-pyrrolo[3,2-b]pyridin-3-ylmethyl)quinoline-6-carboxamide]
6810 | 264 | Cc1cc2cc(C(=O)N(Cc3ccc(C#N)nn3)[C@H](C)c3ncccc3F)ccc2nc1N [Example 728, 2-amino-N-((6-cyano-3-pyridazinyl)methyl)-N-((1R)-1-(3-fluoro-2-pyridinyl)ethyl)-3-methyl-6-quinolinecarboxamide]
> 10000 | 220 | COc1ccc(CN(C(=O)c2cnc3nc(N)c(Br)cc3c2)[C@H](C)c2ncccc2F)nn1 [Example 735, 7-amino-6-bromo-N-((1R)-1-(3-fluoro-2-pyridinyl)ethyl)-N-((6-methoxy-3-pyridazinyl)methyl)-1,8-naphthyridine-3-carboxamide]
6960 | 151 | COc1ccc(CN(C(=O)c2ccc3nc(N)c(Br)cc3c2)[C@H](C)c2ncccc2F)nn1 [Example 736, 2-amino-3-bromo-N-((1R)-1-(3-fluoro-2-pyridinyl)ethyl)-N-((6-methoxy-3-pyridazinyl)methyl)-6-quinolinecarboxamide]
8360 | 270 | Cc1cc2cc(C(=O)N(Cc3cc4c(cn3)OCCC4)C(C)c3ncccn3)ccc2nc1N (centres unmarked) [Example 741, 2-amino-N-((3,4-dihydro-2H-pyrano[2,3-c]pyridin-6-yl)methyl)-3-methyl-N-(1-(pyrimidin-2-yl)ethyl)quinoline-6-carboxamide]
7260 | 139 | C[C@H](c1ncccn1)N(Cc1ccc(OC(F)F)nn1)C(=O)c1ccc2nc(N)c(Br)cc2c1 [Example 746, (R)-2-amino-3-bromo-N-((6-(difluoromethoxy)pyridazin-3-yl)methyl)-N-(1-(pyrimidin-2-yl)ethyl)quinoline-6-carboxamide]
